Molecular target: Apolipoprotein B-100 (Homo sapiens, UniProt P04114)
Test: Inhibition of apolipoprotein B (apoB) secreted by human hepatoma cells (Hep G2) […]

Chain of Apolipoprotein B-100 (P04114 whole entry C1422Y): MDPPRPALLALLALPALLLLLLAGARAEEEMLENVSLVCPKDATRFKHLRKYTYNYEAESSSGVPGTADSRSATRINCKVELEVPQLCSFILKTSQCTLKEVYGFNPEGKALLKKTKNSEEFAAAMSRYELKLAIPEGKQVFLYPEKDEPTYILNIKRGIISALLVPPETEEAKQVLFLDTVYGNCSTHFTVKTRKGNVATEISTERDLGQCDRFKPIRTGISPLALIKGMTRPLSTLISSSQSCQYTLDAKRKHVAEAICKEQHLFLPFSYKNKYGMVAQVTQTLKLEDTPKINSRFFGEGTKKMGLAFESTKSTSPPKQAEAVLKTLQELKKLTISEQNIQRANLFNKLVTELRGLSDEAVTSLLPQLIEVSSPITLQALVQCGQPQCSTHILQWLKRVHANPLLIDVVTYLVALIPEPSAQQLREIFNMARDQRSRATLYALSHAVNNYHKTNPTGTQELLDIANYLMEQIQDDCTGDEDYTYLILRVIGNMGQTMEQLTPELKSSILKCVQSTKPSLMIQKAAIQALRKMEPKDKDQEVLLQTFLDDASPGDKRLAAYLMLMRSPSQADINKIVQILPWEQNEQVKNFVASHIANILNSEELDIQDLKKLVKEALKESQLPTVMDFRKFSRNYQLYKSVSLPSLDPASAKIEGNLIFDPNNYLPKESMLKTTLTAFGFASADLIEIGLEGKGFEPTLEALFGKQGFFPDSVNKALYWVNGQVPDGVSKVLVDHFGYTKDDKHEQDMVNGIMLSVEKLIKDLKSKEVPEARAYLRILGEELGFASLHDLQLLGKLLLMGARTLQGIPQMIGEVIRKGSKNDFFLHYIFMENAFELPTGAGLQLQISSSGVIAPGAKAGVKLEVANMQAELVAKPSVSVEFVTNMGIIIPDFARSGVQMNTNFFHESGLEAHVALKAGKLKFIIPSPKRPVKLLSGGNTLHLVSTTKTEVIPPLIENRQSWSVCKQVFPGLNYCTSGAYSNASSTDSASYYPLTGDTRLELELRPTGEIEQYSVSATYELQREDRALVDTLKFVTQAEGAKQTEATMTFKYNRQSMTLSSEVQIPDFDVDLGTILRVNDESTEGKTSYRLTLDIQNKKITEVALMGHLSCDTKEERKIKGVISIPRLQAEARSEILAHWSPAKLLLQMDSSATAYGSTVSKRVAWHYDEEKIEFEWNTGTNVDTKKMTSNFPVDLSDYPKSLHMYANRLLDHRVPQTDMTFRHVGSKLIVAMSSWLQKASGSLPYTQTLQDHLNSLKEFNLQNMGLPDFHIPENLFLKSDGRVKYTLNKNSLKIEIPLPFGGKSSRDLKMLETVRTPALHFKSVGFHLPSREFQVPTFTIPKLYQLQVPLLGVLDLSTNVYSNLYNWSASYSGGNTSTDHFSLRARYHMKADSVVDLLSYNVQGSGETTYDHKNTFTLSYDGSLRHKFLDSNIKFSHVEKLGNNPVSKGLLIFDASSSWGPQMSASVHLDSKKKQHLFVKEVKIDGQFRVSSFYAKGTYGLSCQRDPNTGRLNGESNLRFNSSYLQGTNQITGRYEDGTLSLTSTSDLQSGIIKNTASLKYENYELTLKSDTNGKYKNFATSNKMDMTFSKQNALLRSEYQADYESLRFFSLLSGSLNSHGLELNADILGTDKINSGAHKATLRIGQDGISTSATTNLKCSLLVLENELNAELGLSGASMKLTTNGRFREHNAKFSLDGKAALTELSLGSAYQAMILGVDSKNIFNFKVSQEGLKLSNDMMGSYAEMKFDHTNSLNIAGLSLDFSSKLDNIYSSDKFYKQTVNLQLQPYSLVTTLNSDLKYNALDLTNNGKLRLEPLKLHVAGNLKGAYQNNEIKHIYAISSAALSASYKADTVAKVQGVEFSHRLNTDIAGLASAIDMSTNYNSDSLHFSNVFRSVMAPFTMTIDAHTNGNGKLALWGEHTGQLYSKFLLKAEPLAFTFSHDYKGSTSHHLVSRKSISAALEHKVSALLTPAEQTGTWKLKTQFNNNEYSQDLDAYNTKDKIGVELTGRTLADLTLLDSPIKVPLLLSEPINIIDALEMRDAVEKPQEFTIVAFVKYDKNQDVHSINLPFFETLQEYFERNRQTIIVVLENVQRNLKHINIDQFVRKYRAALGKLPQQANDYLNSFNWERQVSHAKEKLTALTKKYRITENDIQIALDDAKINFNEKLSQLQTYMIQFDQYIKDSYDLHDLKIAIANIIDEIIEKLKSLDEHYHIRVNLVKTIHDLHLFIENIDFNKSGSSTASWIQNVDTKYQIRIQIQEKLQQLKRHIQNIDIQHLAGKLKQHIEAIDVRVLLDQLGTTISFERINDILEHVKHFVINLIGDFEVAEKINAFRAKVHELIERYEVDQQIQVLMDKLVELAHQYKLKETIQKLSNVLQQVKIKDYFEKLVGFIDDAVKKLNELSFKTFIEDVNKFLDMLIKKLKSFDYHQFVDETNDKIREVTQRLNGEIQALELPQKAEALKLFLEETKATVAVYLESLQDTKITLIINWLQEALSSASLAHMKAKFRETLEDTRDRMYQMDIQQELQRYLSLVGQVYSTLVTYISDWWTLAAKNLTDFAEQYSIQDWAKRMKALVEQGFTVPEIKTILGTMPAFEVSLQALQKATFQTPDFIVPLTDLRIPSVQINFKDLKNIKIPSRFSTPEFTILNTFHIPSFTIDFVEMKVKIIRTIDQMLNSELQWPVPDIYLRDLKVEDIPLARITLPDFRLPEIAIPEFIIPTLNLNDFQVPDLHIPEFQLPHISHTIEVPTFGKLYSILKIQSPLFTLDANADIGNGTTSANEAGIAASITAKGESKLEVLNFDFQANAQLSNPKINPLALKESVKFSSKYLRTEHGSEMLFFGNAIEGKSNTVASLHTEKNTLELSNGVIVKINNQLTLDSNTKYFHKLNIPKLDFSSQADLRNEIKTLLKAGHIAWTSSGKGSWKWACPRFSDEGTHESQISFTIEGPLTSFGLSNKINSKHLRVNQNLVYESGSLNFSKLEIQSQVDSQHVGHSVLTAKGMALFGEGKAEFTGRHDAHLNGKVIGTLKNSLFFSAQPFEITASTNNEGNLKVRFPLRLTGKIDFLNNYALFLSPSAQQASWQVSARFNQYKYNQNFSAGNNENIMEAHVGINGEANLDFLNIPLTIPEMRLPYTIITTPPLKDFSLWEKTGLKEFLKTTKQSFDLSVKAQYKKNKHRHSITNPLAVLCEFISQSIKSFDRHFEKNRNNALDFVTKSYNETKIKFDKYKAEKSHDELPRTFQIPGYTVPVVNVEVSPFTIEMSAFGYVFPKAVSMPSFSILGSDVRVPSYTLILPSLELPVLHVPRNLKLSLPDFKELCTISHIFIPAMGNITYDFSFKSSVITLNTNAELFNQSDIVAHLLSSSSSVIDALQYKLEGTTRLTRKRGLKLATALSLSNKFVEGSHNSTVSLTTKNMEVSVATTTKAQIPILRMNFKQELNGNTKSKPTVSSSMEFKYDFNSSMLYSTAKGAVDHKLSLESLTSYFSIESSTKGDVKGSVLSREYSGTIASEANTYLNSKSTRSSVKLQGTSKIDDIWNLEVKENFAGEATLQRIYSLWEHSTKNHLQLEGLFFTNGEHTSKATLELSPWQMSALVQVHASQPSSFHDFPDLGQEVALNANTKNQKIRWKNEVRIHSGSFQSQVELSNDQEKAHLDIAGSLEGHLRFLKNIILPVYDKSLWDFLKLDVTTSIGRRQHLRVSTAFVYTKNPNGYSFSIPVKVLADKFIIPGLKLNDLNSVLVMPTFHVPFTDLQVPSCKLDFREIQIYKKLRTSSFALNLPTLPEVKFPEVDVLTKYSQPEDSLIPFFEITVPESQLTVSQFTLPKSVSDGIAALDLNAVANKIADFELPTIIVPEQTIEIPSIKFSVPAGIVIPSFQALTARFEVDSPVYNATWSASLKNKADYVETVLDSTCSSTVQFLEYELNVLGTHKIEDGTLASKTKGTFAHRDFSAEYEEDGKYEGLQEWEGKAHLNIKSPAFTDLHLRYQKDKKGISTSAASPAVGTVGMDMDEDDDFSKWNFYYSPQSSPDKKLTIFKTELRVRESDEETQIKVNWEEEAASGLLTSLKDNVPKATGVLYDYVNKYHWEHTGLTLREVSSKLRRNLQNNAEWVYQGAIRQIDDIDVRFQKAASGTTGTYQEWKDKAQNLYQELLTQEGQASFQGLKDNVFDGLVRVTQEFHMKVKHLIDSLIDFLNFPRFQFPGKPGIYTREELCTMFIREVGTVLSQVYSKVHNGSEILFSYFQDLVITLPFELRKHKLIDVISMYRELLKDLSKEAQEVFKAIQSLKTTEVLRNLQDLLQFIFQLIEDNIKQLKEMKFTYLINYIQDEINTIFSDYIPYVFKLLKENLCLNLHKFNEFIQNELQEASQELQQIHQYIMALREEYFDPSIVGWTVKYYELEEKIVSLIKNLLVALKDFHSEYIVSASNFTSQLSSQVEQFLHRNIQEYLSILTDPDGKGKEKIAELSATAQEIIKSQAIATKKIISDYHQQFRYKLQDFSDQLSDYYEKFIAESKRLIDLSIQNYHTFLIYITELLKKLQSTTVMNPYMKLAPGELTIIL

IC50 | SMILES
1.7 nM | Cc1cccc(C(=O)Nc2ccc3c(c2)C[C@@H](NCc2ccccn2)C3)c1-c1ccc(C(F)(F)F)cc1 [(S)-6-methyl-N-(2-(pyridin-2-ylmethylamino)-2,3-dihydro-1H-inden-5-yl)-4'-(trifluoromethyl)biphenyl-2-carboxamide]
4.1 nM | COC(=O)NCC1Cc2ccc(NC(=O)c3cccc(C)c3-c3ccc(C(F)(F)F)cc3)cc2C1 (stereo unspecified) [{5-[(6-Methyl-4'-trifluoromethyl-biphenyl-2-carbonyl)-amino]-indan-2-ylmethyl}-carbamic acid methyl ester]
1.6 nM | Cc1cccc(C(=O)Nc2ccc3c(c2)CCC(NS(=O)(=O)c2cccs2)CC3)c1-c1ccc(C(F)(F)F)cc1 (stereo unspecified) [6-Methyl-4'-trifluoromethyl-biphenyl-2-carboxylic acid [7-(thiophene-2-sulfonylamino)-6,7,8,9-tetrahydro-5H-benzocyclohepten-2-yl]-amide]
5 nM | Cc1cccc(C(=O)Nc2ccc3c(c2)CCC(NS(C)(=O)=O)CC3)c1-c1ccc(Cl)cc1 (stereo unspecified) [4'-Chloro-6-methyl-biphenyl-2-carboxylic acid (7-methanesulfonylamino-6,7,8,9-tetrahydro-5H-benzocyclohepten-2-yl)-amide]
2.2 nM | COC(=O)N[C@H]1Cc2ccc(NC(=O)c3cc(C)ccc3-c3ccc(C(F)(F)F)cc3)cc2C1 [{5-[(4-Methyl-4'-trifluoromethyl-biphenyl-2-carbonyl)-amino]-indan-2-yl}-carbamic acid methyl ester]
6.4 nM | COC(=O)N[C@@H]1Cc2ccc(NC(=O)c3cccc(C)c3-c3ccc(C(F)(F)F)cc3)cc2C1 [(R)-methyl 5-(6-methyl-4'-(trifluoromethyl)biphenyl-2-ylcarboxamido)-2,3-dihydro-1H-inden-2-ylcarbamate]
2.3 nM | Cc1cccc(C(=O)Nc2ccc3c(c2)CCC(NS(C)(=O)=O)CC3)c1-c1ccc(C(F)(F)F)cc1 (stereo unspecified) [6-Methyl-4'-trifluoromethyl-biphenyl-2-carboxylic acid (7-methanesulfonylamino-6,7,8,9-tetrahydro-5H-benzocyclohepten-2-yl)-amide]
1.8 nM | COC(=O)N1CCN([C@H]2Cc3ccc(NC(=O)c4cccc(C)c4-c4ccc(C(F)(F)F)cc4)cc3C2)CC1 [4-{5-[(6-Methyl-4'-trifluoromethyl-biphenyl-2-carbonyl)-amino]-indan-2-yl}-piperazine-1-carboxylic acid methyl ester]
10 nM | COC(=O)NCCC1Cc2ccc(NC(=O)c3cccc(C)c3-c3ccc(C(F)(F)F)cc3)cc2C1 (stereo unspecified) [(2-{5-[(6-Methyl-4'-trifluoromethyl-biphenyl-2-carbonyl)-amino]-indan-2-yl}-ethyl)-carbamic acid methyl ester]
15 nM | COc1cccc(C(=O)Nc2ccc3c(c2)CC(NS(C)(=O)=O)C3)c1-c1ccc(Cl)cc1 (stereo unspecified) [4'-Chloro-6-methoxy-biphenyl-2-carboxylic acid (2-methanesulfonylamino-indan-5-yl)-amide]
6.5 nM | Cc1cccc(C(=O)Nc2ccc3c(c2)CC(CNS(C)(=O)=O)C3)c1-c1ccc(C(F)(F)F)cc1 (stereo unspecified) [6-Methyl-4'-trifluoromethyl-biphenyl-2-carboxylic acid [2-(methanesulfonylamino-methyl)-indan-5-yl]-amide]
